pIC50: −log10 of the molar value. Non-standard residues stand in square brackets, D forms with d. Residues, ends and D or L forms follow the SMILES beside them. Met(O) = CS(=O)CC[C@H](N)C(=O)O
Tests used:
[1] = Cytotoxicity against ICR mouse bone marrow cells assessed as cell viability after 24 hrs by MTT assay; format: cell-based
Bone marrow cell = experiment: Inhibition of RANKL-induced osteoclast differentiation in ICR mouse bone marrow cells after 48 hrs by TRAP assay; format: functional, cell-based

In the case of `CC[C@H](C)[C@@H]1NC(=O)[C@H](Cc2ccccc2)NC(=O)[C@H](CC(C)C)NC(=O)[C@@H]2CCCN2C(=O)[C@H](Cc2ccccc2)NC(=O)[C@H](C(C)C)NC(=O)[C@H](CC(C)C)NC(=O)[C@H](CCSC)NC1=O` (cyclo(FIMLVFPL)), the Activity [1] was “Non-toxic” and the pIC50 (Bone marrow cell) was 4.82.

In the case of `CC[C@H](C)[C@@H]1NC(=O)[C@H](Cc2c[nH]c3ccccc23)NC(=O)[C@H](Cc2ccccc2)NC(=O)[C@H](Cc2ccccc2)NC(=O)[C@@H]2CCCN2C(=O)[C@H](CC[S+](C)[O-])NC(=O)[C@H](CC(C)C)NC(=O)[C@H](CCSC)NC1=O` (stereo not given in full) (cyclo(FFWIML[Met(O)]P)), the Activity [1] was “Non-toxic” and the pIC50 (Bone marrow cell) was 5.33.

With `CSCC[C@@H]1NC(=O)[C@H](C(C)C)NC(=O)[C@H](Cc2c[nH]c3ccccc23)NC(=O)[C@H](Cc2ccccc2)NC(=O)[C@H](Cc2ccccc2)NC(=O)[C@@H]2CCCN2C(=O)[C@H](CC[S+](C)[O-])NC(=O)[C@H](CC(C)C)NC1=O` (stereo not given in full) (cyclo(FFWVML[Met(O)]P)) the Activity [1] was “Non-toxic” and the pIC50 (Bone marrow cell) was 6.33.

For `CC[C@H](C)[C@@H]1NC(=O)[C@H](C(C)C)NC(=O)[C@H](Cc2ccccc2)NC(=O)[C@H](Cc2ccccc2)NC(=O)[C@@H]2CCCN2C(=O)[C@@H]2CCCN2C(=O)[C@H]([C@@H](C)CC)NC(=O)[C@H](CC(C)C)NC(=O)[C@H](CC[S+](C)[O-])NC1=O` (stereo not given in full) (cyclo(FFVI[Met(O)]LIPP)), the Activity [1] was “Non-toxic” and the pIC50 (Bone marrow cell) was 4.83.

In the case of `CSCC[C@@H]1NC(=O)[C@H](CC(C)C)NC(=O)[C@H](CC[S+](C)[O-])NC(=O)[C@H](C(C)C)NC(=O)[C@H](Cc2c[nH]c3ccccc23)NC(=O)[C@H](Cc2ccccc2)NC(=O)[C@H](Cc2ccccc2)NC(=O)[C@@H]2CCCN2C1=O` (stereo not given in full) (cyclo(FFWV[Met(O)]LMP)), the Activity [1] was “Non-toxic” and the pIC50 (Bone marrow cell) was 6.23.

In the case of `CC[C@H](C)[C@@H]1NC(=O)[C@H](Cc2c[nH]c3ccccc23)NC(=O)[C@H](Cc2ccccc2)NC(=O)[C@H](Cc2ccccc2)NC(=O)[C@@H]2CCCN2C(=O)[C@H](CCSC)NC(=O)[C@H](CC(C)C)NC(=O)[C@H](CC[S+](C)[O-])NC1=O` (stereo not given in full) (cyclo(FFWI[Met(O)]LMP)), the Activity [1] was “Non-toxic” and the pIC50 (Bone marrow cell) was 6.08.

In the case of `CC[C@H](C)[C@@H]1NC(=O)[C@H](Cc2c[nH]c3ccccc23)NC(=O)[C@H](Cc2ccccc2)NC(=O)[C@H](Cc2ccccc2)NC(=O)[C@@H]2CCCN2C(=O)[C@H](CC(C)C)NC(=O)[C@H](CC(C)C)NC(=O)[C@H](CC[S+](C)[O-])NC1=O` (stereo not given in full) (cyclo(FFWI[Met(O)]LLP)), the Activity [1] was “Non-toxic” and the pIC50 (Bone marrow cell) was 5.41.

In the case of `CC(C)C[C@@H]1NC(=O)[C@H](CC[S+](C)[O-])NC(=O)[C@H](C(C)C)NC(=O)[C@H](Cc2c[nH]c3ccccc23)NC(=O)[C@H](Cc2ccccc2)NC(=O)[C@H](Cc2ccccc2)NC(=O)[C@@H]2CCCN2C(=O)[C@H](CC[S+](C)[O-])NC1=O` (stereo not given in full) (cyclo(FFWV[Met(O)]L[Met(O)]P)), the Activity [1] was “Non-toxic” and the pIC50 (Bone marrow cell) was 6.24.

With `CC[C@H](C)[C@@H]1NC(=O)[C@H](CC(C)C)NC(=O)[C@H](Cc2ccccc2)NC(=O)[C@H](Cc2ccccc2)NC(=O)[C@@H]2CCCN2C(=O)[C@@H]2CCCN2C(=O)[C@H](C(C)C)NC(=O)[C@H](CC(C)C)NC(=O)[C@H]([C@@H](C)CC)NC1=O` [CYCLOLINOPEPTIDE A] (cyclo(FFLIILVPP)) the Activity [1] was “Non-toxic” and the pIC50 (Bone marrow cell) was 4.91.

In the case of `CC[C@H](C)[C@@H]1NC(=O)[C@H](Cc2ccccc2)NC(=O)[C@H](CC(C)C)NC(=O)[C@@H]2CCCN2C(=O)[C@H](Cc2ccccc2)NC(=O)[C@H](C(C)C)NC(=O)[C@H](CC(C)C)NC(=O)[C@H](CC[S+](C)[O-])NC1=O` (stereo not given in full) (cyclo(FI[Met(O)]LVFPL)), the Activity [1] was “Non-toxic” and the pIC50 (Bone marrow cell) was less than 4.70.

For `COc1cc(/C=C/C(=O)CC(=O)/C=C/c2ccc(O)c(OC)c2)ccc1O` [CURCUMIN], the pIC50 (Bone marrow cell) was 5.12.

In the case of `CC[C@H](C)[C@@H]1NC(=O)[C@H](Cc2c[nH]c3ccccc23)NC(=O)[C@H](Cc2ccccc2)NC(=O)[C@H](Cc2ccccc2)NC(=O)[C@@H]2CCCN2C(=O)[C@H](CCSC)NC(=O)[C@H](CC(C)C)NC(=O)[C@H](CCSC)NC1=O` (cyclo(FFWIMLMP)), the Activity [1] was “Non-toxic” and the pIC50 (Bone marrow cell) was 6.31.

In the case of `CC[C@H](C)[C@@H]1NC(=O)[C@H](Cc2c[nH]c3ccccc23)NC(=O)[C@H](Cc2ccccc2)NC(=O)[C@H](Cc2ccccc2)NC(=O)[C@@H]2CCCN2C(=O)[C@H](CC[S+](C)[O-])NC(=O)[C@H](CC(C)C)NC(=O)[C@H](CC[S+](C)[O-])NC1=O` (stereo not given in full) (cyclo(FFWI[Met(O)]L[Met(O)]P)), the Activity [1] was “Non-toxic” and the pIC50 (Bone marrow cell) was 5.39.

With `CC[C@H](C)[C@@H]1NC(=O)[C@H](C(C)C)NC(=O)[C@H](Cc2ccccc2)NC(=O)[C@H](Cc2ccccc2)NC(=O)[C@@H]2CCCN2C(=O)[C@@H]2CCCN2C(=O)[C@H]([C@@H](C)CC)NC(=O)[C@H](CC(C)C)NC(=O)[C@H](CCSC)NC1=O` (cyclo(FFVIMLIPP)) the Activity [1] was “Non-toxic” and the pIC50 (Bone marrow cell) was 5.26.

For `CSCC[C@@H]1NC(=O)[C@H](C(C)C)NC(=O)[C@H](Cc2c[nH]c3ccccc23)NC(=O)[C@H](Cc2ccccc2)NC(=O)[C@H](Cc2ccccc2)NC(=O)[C@@H]2CCCN2C(=O)[C@H](CCSC)NC(=O)[C@H](CC(C)C)NC1=O` (cyclo(FFWVMLMP)), the Activity [1] was “Non-toxic” and the pIC50 (Bone marrow cell) was 6.22.

With `CC(C)Oc1ccc2c(=O)c(-c3ccccc3)coc2c1` [IPRIFLAVONE] the pIC50 (Bone marrow cell) was 4.76.
